Results from patent publication US12616760B2, “Synthetic cyclic peptide mimetics” (priority 2020, dated 2026).
Like-named read-outs stand apart in the source and are kept apart here. Square brackets hold non-standard residues; d marks the D form. Peptide text beside a SMILES is read from it. Nle = CCCC[C@H](N)C(=O)O; azaGly = NNC(=O)O

Key:
Aβ40 = molecular target: T1, Aβ40 (Homo sapiens, UniProt P05067); assay: Thioflavin T (ThT) fluorescence assay of Aβ40 aggregation; format: biochemical; details: for Inhibition of amyloidogenic activity(%) / Inhibition of amyloidogenic activity: ThT; for Inhibition of amyloidogenic activity: Table 4
T1 construct: The extent of Aβ40 aggregation in the presence of increasing concentrations of azacyclopeptides
T1 sequence (P05067 672-711 limits assumed): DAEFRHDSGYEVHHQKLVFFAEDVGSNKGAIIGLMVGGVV
Method: Amyloid generation can be identified and quantified using the thioflavin T (ThT) fluorescence dye assay. […] Agents that bind and inhibit aggregation of Aβ diminish ThT fluorescence relative to untreated Aβ. The extent of Aβ40 aggregation in the presence of increasing concentrations of azacyclopeptides and azasulfurylcyclopeptide 55 was evaluated by the ThT assay. Fluorescence of Aβ40 that was aged for 48 h was used as control, defined as 0% anti-amyloidogenic activity, and compared with fluorescence in the presence of cyclic peptide mimics at increasing concentrations to measure anti-amyloidogenic activity.

[1] = test system: rat pheochromocytoma PC12 cells; format: cell-based; parameters: Cells survival (%): concentration or dose not given beside the values; details: for Cells survival (%): PC12, MTT
Method: Considering that self-assembly and aggregation of Aβ are key components of AD pathogenesis, the ability of azaGly-cyclopeptides 2-7 to reduce Aβ-induced toxicity was next tested in rat pheochromocytoma PC12 cells. Cells were incubated for 24 h with Aβ40 (10 μM) that had been aged for 48 h in the presence and absence of increasing concentrations of the azacyclopeptides. Cell viability was assessed using the 3-(4,5-dimethylthiazol-2-yl)-2,5-diphenyltetrazolium bromide (MTT) survival assay (Table 2). In this assay, viable cells reduce permeable MTT by active metabolism to produce a purple-colored formazan product with absorbance maximum near 570 nm. Dead cells lose the ability to convert MTT into formazan. The quantity of formazan is therefore directly proportional to the number of viable cells and measurable over time by recording changes in absorbance using a spectrophotometer. Neurons are susceptible to the lethal effects of misfolded proteins which are likely to aggregate at increased concentration. The pheochromocytoma (PC12) cell line is commonly used in in vitro studies to examine neuronal variation and neurotoxicity as a model of neurodegenerative disease.

[2] = Aβ:peptide 1:1, 10 μM soluble Aβ40
[3] = Aβ:peptide 1:5, 10 μM soluble Aβ40
[4] = Aβ:peptide 1:10, 10 μM soluble Aβ40
[5] = Aβ:peptide 1:0.1, 10 μM soluble Aβ40

Compound | Inhibition of amyloidogenic activity (Aβ40; Aβ:peptide 1:1) [%] | Inhibition of amyloidogenic activity (Aβ40; Aβ:peptide 1:5) [%] | Inhibition of amyloidogenic activity (Aβ40; Aβ:peptide 1:10) [%] | Inhibition of amyloidogenic activity(%) (Aβ40; Table 5, Aβ:peptide 1:1) | Inhibition of amyloidogenic activity(%) (Aβ40; Table 5, Aβ:peptide 1:5) | Inhibition of amyloidogenic activity(%) (Aβ40; Table 5, Aβ:peptide 1:10) | Cells survival (%) ([1]; Table 5, Aβ:peptide 1:1) | Cells survival (%) ([1]; Table 5, Aβ:peptide 1:5) | Cells survival (%) ([1]; Table 4, Aβ:peptide 1:1) | Cells survival (%) ([1]; Table 4, Aβ:peptide 1:5) | further results
CCCC[C@@H]1NC(=O)[C@@H](CC(C)C)NC(=O)[C@H](CCCCN)NC(=O)[C@@H](CO)NC(=O)[C@H](Cc2c[nH]cn2)NC(=O)[C@@H](Cc2c[nH]c3ccccc23)NC1=O [Compound 1, Cyclo-L-lysine-D-leucine-L-norleucine-D-tryptophan-L-histidine-D-serine, reference compound] (cyclo(K[dL][Nle][dW]H[dS])) | 44.6 | 84.7 | 92.8 | 44.6 | 84.7 | 92.8 | – | – | – | – | Inhibition of amyloidogenic activity(%) (Aβ40; [2]): 44.6%; Inhibition of amyloidogenic activity(%) (Aβ40; [3]): 84.7%; Inhibition of amyloidogenic activity(%) (Aβ40; [4]): 92.8%
CCCC[C@@H]1NC(=O)[C@@H](CC(C)C)NC(=O)NNC(=O)[C@@H](CO)NC(=O)[C@H](Cc2c[nH]cn2)NC(=O)[C@@H](Cc2c[nH]c3ccccc23)NC1=O [Compound 2, c(D-Leu-L-Nle-D-Trp-L-His-D-Ser-Gly*)] (cyclo([azaGly][dL][Nle][dW]H[dS])) | – | – | – | – | – | – | – | – | – | – | cell survival ([1]; 24 h): 87%; Inhibition of amyloidogenic activity(%) (Aβ40; [5]): 63.9%; Inhibition of amyloidogenic activity(%) (Aβ40; [2]): 76.7%; effect on lag phase and ThT fluorescence (Aβ40; above stoichiometric concentrations): promoted significantly fibrilization of Aβ shortening the lag-phase and increasing ThT fluorescence; effect on lag phase and ThT fluorescence (Aβ40; at and below stoichiometric concentrations): prolonged dramatically the lag-phase and reduced ThT fluorescence
CCCC[C@@H]1NC(=O)[C@@H](CC(C)C)NC(=O)[C@H](CCCCN)NC(=O)[C@@H](CO)NC(=O)NNC(=O)[C@@H](Cc2c[nH]c3ccccc23)NC1=O [Compound 4, c(D-Leu-L-Nle-D-Trp-Gly*-D-Ser-L-Lys)] (cyclo(K[dL][Nle][dW][azaGly][dS])) | – | – | – | – | – | – | – | – | – | – | Inhibition of amyloidogenic activity(%) (Aβ40; [2]): 50.2%; Inhibition of amyloidogenic activity(%) (Aβ40; [3]): 75%; Inhibition of amyloidogenic activity(%) (Aβ40; [4]): 68.8%
CCCC[C@@H]1NC(=O)[C@@H](CC(C)C)NC(=O)[C@H](CCCCN)NC(=O)[C@@H](CO)NC(=O)[C@H](Cc2c[nH]cn2)NC(=O)NNC1=O [Compound 5, c(D-Leu-L-Nle-Gly*-L-His-D-Ser-L-Lys)] (cyclo(K[dL][Nle][azaGly]H[dS])) | – | – | – | – | – | – | – | – | – | – | Inhibition of amyloidogenic activity(%) (Aβ40; [5]): 55.3%; Inhibition of amyloidogenic activity(%) (Aβ40; [2]): 89.8%; Inhibition of amyloidogenic activity(%) (Aβ40; [3]): 91.1%; Inhibition of amyloidogenic activity(%) (Aβ40; [4]): 90.8%; effect on lag phase and ThT fluorescence (Aβ40; incubation with Aβ): dramatically prolonged the lag phase and reduced the ThT fluorescence
CC(C)C[C@H]1NC(=O)[C@H](CCCCN)NC(=O)[C@@H](CO)NC(=O)[C@H](Cc2c[nH]cn2)NC(=O)[C@@H](Cc2c[nH]c3ccccc23)NC(=O)NNC1=O [Compound 6, c(D-Leu-Gly*-D-Trp-L-His-D-Ser-L-Lys)] (cyclo(K[dL][azaGly][dW]H[dS])) | – | – | – | – | – | – | – | – | – | – | Inhibition of amyloidogenic activity(%) (Aβ40; [3]): 80.1%; Inhibition of amyloidogenic activity(%) (Aβ40; [4]): 81.8%; effect on lag phase and ThT fluorescence (Aβ40; incubation with Aβ): dramatically prolonged the lag phase and reduced the ThT fluorescence
CCCC[C@@H]1NC(=O)NNC(=O)[C@H](CCCCN)NC(=O)[C@@H](CO)NC(=O)[C@H](Cc2c[nH]cn2)NC(=O)[C@@H](Cc2c[nH]c3ccccc23)NC1=O [Compound 7, c(Gly*-L-Nle-D-Trp-L-His-D-Ser-L-Lys)] (cyclo(K[azaGly][Nle][dW]H[dS])) | – | – | – | – | – | – | – | – | – | – | Inhibition of amyloidogenic activity(%) (Aβ40; [3]): 78.8%; Inhibition of amyloidogenic activity(%) (Aβ40; [4]): 80.5%; effect on lag phase and ThT fluorescence (Aβ40; incubation with Aβ): dramatically prolonged the lag phase and reduced the ThT fluorescence
c(4-Phe*-L-Nlc-D-Trp-L-His-D-Ser-L-Lys) [Compound 20] | – | – | – | 1.6 | 48.4 | 68.4 | 73.0 | 84.9 | – | – | –
c(D-Leu-L-Nle-D-Trp-D-His-IPrTyr*-L-Lys) [Compound 11] | – | – | – | 3.5 | 54.7 | 54.2 | 72.4 | 74.3 | – | – | –
c(D-Leu-L-Nle-D-Trp-L-His-D-Ser-Lys*) [Compound 8] | 54.4 | 77.8 | 80.9 | – | – | – | – | – | 80.1 | 91.3 | –
c(D-Leu-L-Nle-D-Trp-L-His-Gly^-L-Lys) [Compound 55] | – | – | – | – | – | – | 76.9 | 106 | – | – | –
c(D-Leu-L-Nle-D-Trp-L-His-Hse*-L-Lys) [Compound 9] | 8.3 | 77.9 | 77.2 | – | – | – | – | – | 82.8 | 97.9 | –
c(D-Leu-L-Nle-D-Trp-L-His-IPrTyr*-L-Lys) [Compound 10] | – | – | – | 8.2 | 85.2 | 86.2 | 75.4 | 83.4 | – | – | –
c(D-Leu-L-Nle-D-Trp-Phe*-D-Ser-L-Lys) [Compound 12] | – | – | – | 54.4 | 77.7 | 80.9 | 70.1 | 87.9 | – | – | –
c(D-Leu-L-Nle-D-Trp-Pra*-D-Ser-L-Lys) [Compound 14] | – | – | – | 76.9 | 81.2 | 81.4 | 71.7 | 83.5 | – | – | –
c(D-Leu-L-Nle-D-Trp-Tal*-D-Ser-L-Lys) [Compound 13] | 58.0 | 72.6 | 78.4 | – | – | – | – | – | 70.8 | 96.3 | –
c(D-Leu-L-Nle-Itr*-L-His-D-Ser-L-Lys) [Compound 15] | 78.0 | 81.6 | 86.1 | – | – | – | – | – | 78.8 | 71.7 | –
c(D-Leu-Nle*-D-Trp-L-His-D-Ser-L-Lys) [Compound 16] | 72.9 | 76.4 | 85.1 | – | – | – | – | – | 86.3 | 94.5 | –
c(D-Leu-Phe*-D-Trp-L-His-D-Ser-L-Lys) [Compound 17] | – | – | – | 3.5 | 36.9 | 79.8 | 61.8 | 69.5 | – | – | –
c(Leu*-L-Nlc-D-Trp-L-His-D-Ser-L-Lys) [Compound 18] | 15.4 | 17.1 | 37.5 | – | – | – | – | – | 72.8 | 76.3 | –
c(Phe*-L-Nle-D-Trp-L-His-D-Ser-L-Lys) [Compound 19] | – | – | – | 12.5 | 54.5 | 61.2 | 73.0 | 74.5 | – | – | –
